Data from article PMC4585259 (Frontiers in Pharmacology, 2015).
Read-outs that look alike come from different tables or passages of the source.

Target: T1, rNav1.2 sodium channels (Rattus norvegicus, UniProt P04775)
T1 construct: host or cells: HEK-293
Test: QPatch automated patch clamp, inhibition of sodium currents evoked by 5 Hz trains at three extracellular pH values
Type: cell-based
Details: for class of pH-dependence pattern (cluster analysis): Ward's method on 18 variables of affinity, reversibility, onset; for τoffset / τonset: concentration (lidocaine 300 μM, memantine 30 μM)
Description: HEK-293 cells stably expressing rNav1.2 sodium channels were obtained from NeuroSearch (Ballerup, Denmark). The cells were grown in Dulbecco's modified Eagle medium supplemented with 10% FBS. Prior to use, the cells were trypsinized and subsequently kept in suspension in the QPatch cell storage facility in CHO-S- SFM-II medium.
Composition of the extracellular solution was: (in mM): 140 NaCl, 3 KCl, 1 CaCl2 1 MgCl2, 0.1 CdCl2, 20 TEA-Cl, 5 HEPES, adjusted to pH 7.3, Osmolality: 320 mOsm. […] Drugs were synthesized in Gedeon Richter Plc. […] The full list of drugs, with their three-letter codes, concentration, as well as their main therapeutic indication and main mechanism of action are shown in Table 1. […] The choice of concentrations used in this study may seem unusually high.
Data were sampled at a frequency of 25 kHz and filtered at 5 kHz. Junction potential was calculated to be −11 mV and was corrected for. […] Cells having membrane resistance < 500 MOhm, series resistance > 9 MOhm, or capacitance > 22 pF were excluded from analysis. The experimental protocol was also identical to the one used in our previous study: sodium channels were activated by 5 Hz trains of 5 depolarizations (−90 to −10 mV) repeated in every 20 s. In this study, however, the same control–drug-application–washout sequence was repeated four times: at neutral, acidic, alkalic, and again neutral pH. The peak amplitudes of sodium currents throughout the whole experiment are shown plotted against time in Figure 1 and Supplementary Figure 1.
Initial analysis, including subtraction of leak and capacitive artifacts, as well as peak detection were done in the QPatch software. […] All experiments were normalized to the amplitude of the current evoked by the first depolarization of the last train under control conditions. […] For all four drug applications in an experiment, apparent affinity, onset and offset time constants as well as reversibility values were calculated. […] (This method is equivalent to applying the Lineweaver-Burk plot method using a single concentration.) Reversibility values were calculated from control (c), inhibited (i), and wash-out (w) amplitudes as follows: Reversibility = (w-i)/(c-i). Reversibility values should not be regarded as experimental platform-independent properties of compounds. […] However, reversibility values are a valuable source of information regarding physicochemical differences between individual drugs, or between effects of the same drug under different extracellular pH conditions. Onset and offset time constants were determined by single exponential fitting to individual experiments. For neutral pH numerical data were given as the average of the data from the first and the last drug applications. Thin black lines on Figure 1 and Supplemental Figure 1 show the average of five fitted exponentials, (not the exponential fitted to the averaged normalized amplitudes). The numerical values of apparent affinity, onset and offset time constants and reversibility are shown in Table 2, and their relative position is illustrated in Figure 2. Affinity and time constant values were logarithmically transformed for statistics, therefore we show their geometric mean. For recovery data no transformation was done, and we show arithmetic mean values. Significance values were calculated using paired, two-tailed Student's t-test based on five pairs of apparent affinity (log transform), time constant (log transform), or reversibility values obtained from five individual experiments. Because of the large number of comparisons in this study, we accepted p < 0.01 as significant. Cluster analysis was done using Ward's minimum variance method, with Euclidean distance measure. Data were normalized by subtracting the mean (after logarithmic transformation in the case of apparent affinity and time constants), and dividing by the standard deviation.

[1] = pH 6.0, single concentration (lidocaine 300 μM, memantine 30 μM), geometric mean of 5, read-out: apparent affinity
[2] = pH 7.3, single concentration (lidocaine 300 μM, memantine 30 μM), geometric mean of 5, read-out: apparent affinity
[3] = pH 8.6, single concentration (lidocaine 300 μM, memantine 30 μM), geometric mean of 5, read-out: apparent affinity
[4] = pH=6.0, cc 30 mM, read-out: Apparent Affinity
[5] = pH=7.3, cc 30 mM, read-out: Apparent Affinity
[6] = pH=8.6, cc 30 mM, read-out: Apparent Affinity

T1 sequence (P04775 whole entry): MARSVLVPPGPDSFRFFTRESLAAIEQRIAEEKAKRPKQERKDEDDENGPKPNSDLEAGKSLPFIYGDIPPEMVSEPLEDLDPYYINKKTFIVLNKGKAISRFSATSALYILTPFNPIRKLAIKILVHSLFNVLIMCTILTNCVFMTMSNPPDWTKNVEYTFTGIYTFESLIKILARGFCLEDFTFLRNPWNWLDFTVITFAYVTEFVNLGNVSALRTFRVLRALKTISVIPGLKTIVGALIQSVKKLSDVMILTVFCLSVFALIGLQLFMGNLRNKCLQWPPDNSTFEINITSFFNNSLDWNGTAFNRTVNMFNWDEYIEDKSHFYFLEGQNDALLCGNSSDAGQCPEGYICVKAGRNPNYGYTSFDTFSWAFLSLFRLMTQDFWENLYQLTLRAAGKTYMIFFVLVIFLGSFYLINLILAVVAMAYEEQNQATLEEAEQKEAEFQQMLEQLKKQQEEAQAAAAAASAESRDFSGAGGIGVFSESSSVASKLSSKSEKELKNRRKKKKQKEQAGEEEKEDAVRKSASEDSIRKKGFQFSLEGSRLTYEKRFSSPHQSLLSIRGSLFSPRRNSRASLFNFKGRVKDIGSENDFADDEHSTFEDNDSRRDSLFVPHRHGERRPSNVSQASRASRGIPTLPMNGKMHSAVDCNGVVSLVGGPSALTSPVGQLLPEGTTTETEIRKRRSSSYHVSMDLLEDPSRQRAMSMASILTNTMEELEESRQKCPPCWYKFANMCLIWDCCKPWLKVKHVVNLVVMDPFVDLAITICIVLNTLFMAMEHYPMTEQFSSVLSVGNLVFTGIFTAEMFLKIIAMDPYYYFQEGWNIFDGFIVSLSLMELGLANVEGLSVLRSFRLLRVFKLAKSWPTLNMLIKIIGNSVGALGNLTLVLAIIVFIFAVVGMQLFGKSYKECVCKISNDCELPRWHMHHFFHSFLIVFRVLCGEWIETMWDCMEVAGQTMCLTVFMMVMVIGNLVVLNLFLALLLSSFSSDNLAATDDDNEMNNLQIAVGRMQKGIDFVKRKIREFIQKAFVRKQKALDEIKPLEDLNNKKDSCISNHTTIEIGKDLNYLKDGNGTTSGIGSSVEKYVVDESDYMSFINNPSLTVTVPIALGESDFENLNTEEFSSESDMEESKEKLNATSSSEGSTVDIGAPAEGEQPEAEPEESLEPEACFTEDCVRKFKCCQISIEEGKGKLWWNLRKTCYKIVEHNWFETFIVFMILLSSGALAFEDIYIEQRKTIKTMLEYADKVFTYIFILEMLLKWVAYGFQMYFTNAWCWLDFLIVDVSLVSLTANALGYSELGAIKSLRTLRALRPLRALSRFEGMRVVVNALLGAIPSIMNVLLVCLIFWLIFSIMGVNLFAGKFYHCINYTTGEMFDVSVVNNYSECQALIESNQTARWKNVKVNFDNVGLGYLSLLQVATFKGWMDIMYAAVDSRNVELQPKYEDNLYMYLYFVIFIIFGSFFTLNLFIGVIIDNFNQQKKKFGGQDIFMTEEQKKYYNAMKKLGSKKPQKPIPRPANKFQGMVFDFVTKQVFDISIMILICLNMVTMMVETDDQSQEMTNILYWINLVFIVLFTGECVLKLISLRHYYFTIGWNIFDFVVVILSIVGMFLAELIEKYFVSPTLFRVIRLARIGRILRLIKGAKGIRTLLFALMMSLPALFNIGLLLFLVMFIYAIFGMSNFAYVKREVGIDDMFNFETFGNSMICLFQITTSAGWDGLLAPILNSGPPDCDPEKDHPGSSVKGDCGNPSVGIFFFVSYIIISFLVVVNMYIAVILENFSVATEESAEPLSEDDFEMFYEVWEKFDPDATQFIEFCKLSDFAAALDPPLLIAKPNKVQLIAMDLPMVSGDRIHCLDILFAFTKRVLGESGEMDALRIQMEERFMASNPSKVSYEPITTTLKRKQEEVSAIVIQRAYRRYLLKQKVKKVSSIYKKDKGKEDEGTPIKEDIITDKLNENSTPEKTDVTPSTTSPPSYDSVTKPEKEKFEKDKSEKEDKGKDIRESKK

Row | class of pH-dependence pattern (cluster analysis) | τoffset (pH 6.0) | τonset (pH 6.0) | Kd [1] | τoffset (pH 7.3) | τonset (pH 7.3) | Kd [2] | τoffset (pH 8.6) | τonset (pH 8.6) | Kd [3] | SMILES | Ratio Reversibility (pH 6.0/7.3, cc 30 mM) | Ratio Tau Offset (pH 6.0/7.3, cc 30 mM) | Ratio Tau Onset (pH 6.0/7.3, cc 30 mM) | log Ratio App Aff (pH 6.0/7.3, cc 30 mM) | Ratio Reversibility (pH 6.0/8.6, cc 30 mM) | Ratio Tau Offset (pH 6.0/8.6, cc 30 mM) | Ratio Tau Onset (pH 6.0/8.6, cc 30 mM) | log Ratio App Aff (pH 6.0/8.6, cc 30 mM) | Ratio Reversibility (pH 7.3/8.6, cc 30 mM) | Ratio Tau Offset (pH 7.3/8.6, cc 30 mM) | also measured
1 | Class C | 23.45 s | 16.40 s | 40.7 µM | 19.66 s | 15.10 s | 25.6 µM | 28.00 s | 14.70 s | 13.8 µM | CN(C)CCC=C1c2ccccc2CCc2ccccc21 [amitriptyline] | 1.364 | 1.193 | 1.086 | 0.202 | 5.190 | 0.838 | 1.116 | 0.469 | 3.806 | 0.702 | Ratio Tau Onset (pH 7.3/8.6, cc 30 mM): 1.027; log Ratio App Aff (pH 7.3/8.6, cc 30 mM): 0.267; Reversibility (pH=6.0, cc 30 mM): 0.74; Kd [4]: 40.7 µM; Reversibility (pH=7.3, cc 30 mM): 0.55; Kd [5]: 25.6 µM; Reversibility (pH=8.6, cc 30 mM): 0.14; Kd [6]: 13.8 µM
2 | Class A | 12.30 s | 4.00 s | 545 µM | 10.01 s | 5.00 s | 581 µM | 8.25 s | 5.00 s | 543 µM | NC(=O)N1c2ccccc2C=Cc2ccccc21 [carbamazepine] | – | – | – | – | – | – | – | – | – | – | Ratio Reversibility (pH 6.0/7.3, cc 300 mM): 0.728; Ratio Tau Offset (pH 6.0/7.3, cc 300 mM): 1.229; Ratio Tau Onset (pH 6.0/7.3, cc 300 mM): 0.800; log Ratio App Aff (pH 6.0/7.3, cc 300 mM): -0.028; Ratio Reversibility (pH 6.0/8.6, cc 300 mM): 0.955; Ratio Tau Offset (pH 6.0/8.6, cc 300 mM): 1.490; Ratio Tau Onset (pH 6.0/8.6, cc 300 mM): 0.800; log Ratio App Aff (pH 6.0/8.6, cc 300 mM): 0.00109; Ratio Reversibility (pH 7.3/8.6, cc 300 mM): 1.312; Ratio Tau Offset (pH 7.3/8.6, cc 300 mM): 1.212; Ratio Tau Onset (pH 7.3/8.6, cc 300 mM): 1.000; log Ratio App Aff (pH 7.3/8.6, cc 300 mM): 0.029; Reversibility (pH=6.0, cc 300 mM): 0.67; Kd (pH=6.0, cc 300 mM, read-out: Apparent Affinity): 545 µM; Reversibility (pH=7.3, cc 300 mM): 0.92; Kd (pH=7.3, cc 300 mM, read-out: Apparent Affinity): 581 µM; Reversibility (pH=8.6, cc 300 mM): 0.70; Kd (pH=8.6, cc 300 mM, read-out: Apparent Affinity): 543 µM

Row | SMILES | class of pH-dependence pattern (cluster analysis) | τoffset (pH 6.0) | τonset (pH 6.0) | Kd [1] | τoffset (pH 7.3) | τonset (pH 7.3) | Kd [2] | τoffset (pH 8.6) | τonset (pH 8.6) | Kd [3] | Ratio Reversibility (pH 6.0/7.3, cc 30 mM) | Ratio Tau Offset (pH 6.0/7.3, cc 30 mM) | Ratio Tau Onset (pH 6.0/7.3, cc 30 mM) | log Ratio App Aff (pH 6.0/7.3, cc 30 mM) | Ratio Reversibility (pH 6.0/8.6, cc 30 mM) | Ratio Tau Offset (pH 6.0/8.6, cc 30 mM) | Ratio Tau Onset (pH 6.0/8.6, cc 30 mM) | log Ratio App Aff (pH 6.0/8.6, cc 30 mM) | Ratio Reversibility (pH 7.3/8.6, cc 30 mM) | Ratio Tau Offset (pH 7.3/8.6, cc 30 mM) | also measured
3 | CN(C)CCCN1c2ccccc2Sc2ccc(Cl)cc21 [chlorpromazine] | Class G | 23.60 s | 19.40 s | 37.5 µM | 28.40 s | 22.20 s | 31.4 µM | 33.00 s | 29.40 s | 17.2 µM | 1.906 | 0.831 | 0.874 | 0.077 | 1.432 | 0.715 | 0.660 | 0.339 | 0.751 | 0.861 | alkalization-induced recovery (neutral-to-alkalic solution exchange, in words): prominent alkalization-induced recovery; reversibility at all three pH values (pH 6.0, 7.3 and 8.6): below 0.6; Ratio Tau Onset (pH 7.3/8.6, cc 30 mM): 0.755; log Ratio App Aff (pH 7.3/8.6, cc 30 mM): 0.261; Reversibility (pH=6.0, cc 30 mM): 0.53; Kd [4]: 37.5 µM; Reversibility (pH=7.3, cc 30 mM): 0.28; Kd [5]: 31.4 µM; Reversibility (pH=8.6, cc 30 mM): 0.37; Kd [6]: 17.2 µM
